In experiment [1] the target is T1, C-terminal domain (CTD) of human STING (Homo sapiens, UniProt Q86WV6). Nature of the experiment: STING binding FP assay I. The arrangement: recombinant human STING protein (155-379). Particulars: 35 nM STING, 4 nM Probe 1. The method, then: (§1) The interaction between molecules and the C-terminal domain (CTD) of human STING was evaluated using a competition binding assay. In this assay, recombinant human STING protein (155-379) and a STING binding fluorescent probe were employed. Upon binding of the probe to STING, the rotation of the fluorescent probe is slowed due to the larger molecular size of the protein-bound complex. As a result, emitted light retains its plane of polarization, leading to an increase in fluorescence polarization. Molecules competing for the probe binding site displace the probe, which leads to rapid randomization of the polarization plane of the emitted light and a subsequent decrease in measured fluorescence polarization signal. Change in polarization was measured, allowing a comparative evaluation of the binding affinities of different compounds to the target protein.
(§2) The assay was performed in 96-well plates (ThermoFisher, cat.# 237108) containing 100µl : 10 µL test compound in 10% DMSO and buffer A (150 mM NaCl, 50 mM HEPES pH 7.5, 1 mM DTT) + 90 µL prepared master mix solution of: 4 nM fluorescein-labelled STING ligand (Probe 1; synthesis described above) in buffer A + 0.055% Tween-20 (v/v) and 35 nM STING in buffer A. Post mixing, plates were agitated at 600rpm and incubated for 20 min at room temperature. Subsequent measurements of the fluorescence polarization signal were made on a BioTek Synergy-H1 plate reader, using a polarization filter; Exc: 485/20 nm, Em: […]) with a gain-setting of 75. IC50 values were determined using a standard non-linear regression four-parameter curve fit in Graphpad Prism.

Experiment [2] addresses T1, C-terminal domain (CTD) of human STING. In words: STING binding FP assay II. Also noted: recombinant human STING protein (155-379). The settings on record: 7 nM STING. As to the method: as §1, §2
The procedure for STING binding FP assay II is the same as described for STING binding FP assay I, except for a lower STING concentration. In STING binding FP assay II, a concentration of 7 nM STING in buffer A was used.

Experiment [3] concerns the target T2, STING (Homo sapiens, UniProt Q86WV6). Nature of the experiment: Western Blot analysis for S1 STING ligand antagonism in primary human skin fibroblasts. The class given is cell-based. The settings on record: 5 µM; 2 h or 1 h before, simultaneously with, or 15 minutes after 0.3 µM diABZI. Also noted: host or cells: HFF-1 human foreskin fibroblasts. As to the method: To assess whether S1 STING ligands inhibit STING activation, primary human skin fibroblasts (Figure 5) or HFF-1 cells (Figure 6) were treated with various compounds which comprise only an S1 ligand domain and a Linker domain before undergoing Western Blot analysis as described below. Compounds A9, A11, A26 and A30 used in the following experiments share a common S1 ligand, which is also shared by Example compounds 1, 3, 5-29, 33-38.
Cells were incubated with A9 or A11 for 1 or 2 hours before addition of diABZI c3, treated with test compound and diABZI c3 simultaneously, or treated with A9 or A11 after 15 minutes incubation with diABZI c3. As a control, cells were also treated with diABZI c3 alone.
(In western blotting, separated proteins are transferred to a membrane and probed.)

Experiment [4] concerns the target T2, STING. In words: Inhibition of STING-agonist-induced IFN-β and CXCL10 release by Compounds A9 and A11. It is filed as cell-based. The arrangement: host or cells: HFF-1 human foreskin fibroblasts. The settings on record: 1 to 2 hours prior to, simultaneously with, or 15 minutes after diABZI c3. The method, then:
HFF-1 cells were also assessed for inhibition of STING-agonist-induced IFN-β and CXCL10 release in cells treated with Compounds A9 and A11. […] In contrast, pre-treating cells for 1 to 2 hours prior to diABZI c3, simultaneous treatment with A9 and diABZI c3, or pre-treating cells for 15 minutes with diABZI c3 followed by A9 treatment led to a decrease in the IFN media concentration to ~100 U/mL. […] In contrast, cells pre-treated for 1 to 2 hours prior to diABZI c3, simultaneous treatment with A9 and diABZI c3, or pre-treating cells for 15 minutes with diABZI c3 followed by A9 treatment led to a decrease in the CXCL10 media concentration to […] (Figure 9B, unfiled bars).
In contrast, pre-treating cells for 1 to 2 hours prior to diABZI c3, simultaneous treatment with A11 and diABZI c3, or pre-treating cells for 15 minutes with diABZI c3 followed by A11 treatment led to a decrease in the IFN media concentration to -10 - 20 U/mL. […] In contrast, cells pre-treated for 1 to 2 hours prior to diABZI c3, simultaneous treatment with A11 and diABZI c3, or pre-treating cells for 15 minutes with diABZI c3 followed by A11 treatment led to a decrease in the CXCL10 media concentration to -10 - 20 pg/mL (Figure 9B; filled bars).

One may read the IC50 as the concentration that inhibits the measured activity by half.

T2 sequence (Q86WV6 whole entry, the tested form may be a part): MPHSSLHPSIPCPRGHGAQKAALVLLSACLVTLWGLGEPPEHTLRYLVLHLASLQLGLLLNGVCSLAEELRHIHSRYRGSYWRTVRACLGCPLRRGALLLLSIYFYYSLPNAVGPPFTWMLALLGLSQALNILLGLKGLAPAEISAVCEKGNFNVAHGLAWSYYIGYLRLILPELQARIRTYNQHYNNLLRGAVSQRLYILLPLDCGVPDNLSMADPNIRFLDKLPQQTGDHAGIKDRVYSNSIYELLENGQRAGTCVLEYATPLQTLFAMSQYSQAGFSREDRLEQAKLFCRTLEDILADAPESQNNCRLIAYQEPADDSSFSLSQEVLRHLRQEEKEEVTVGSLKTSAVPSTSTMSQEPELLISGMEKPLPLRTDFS
T1 sequence (Q86WV6 155-379): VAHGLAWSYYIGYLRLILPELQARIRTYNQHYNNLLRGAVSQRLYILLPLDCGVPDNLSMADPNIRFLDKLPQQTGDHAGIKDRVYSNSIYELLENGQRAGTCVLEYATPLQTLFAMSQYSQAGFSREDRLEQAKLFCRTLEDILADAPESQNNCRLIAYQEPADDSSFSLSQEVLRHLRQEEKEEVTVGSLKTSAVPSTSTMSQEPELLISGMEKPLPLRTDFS

On to `CCn1nc(C)cc1C(=O)N=c1n(C)c2cc(C(N)=O)ccc2n1CCC(CCn1c(=NC(=O)c2cc(C)nn2CC)n(C)c2cc(C(N)=O)ccc21)OCC(=O)NCCOCCOCCOCCNc1cccc2c1C(=O)N(C1CCC(=O)NC1=O)C2=O` (centres unmarked) [Example 1, 1-[3-({N-2-[2-(2-{2-[2-(2,6-Dioxo-3-piperidyl)-1,3-dioxo-4-isoindolinylamino]ethoxy}ethoxy)ethoxy]ethylcarbamoyl}methoxy)-5-{5-carbamoyl-2-[(1-ethyl-3-methyl-5-pyrazolyl)carbonylimino]-3-methyl-2,3-dihydro-1H-1,3-benzimidazol-1-yl}pentyl]-2-[(1-ethyl-3-methyl-5-pyrazolyl)carbonylimino]-3-methyl-2,3-dihydro-1H-1 ,3-benzimidazole-5-carboxamide], for which the IC50 in experiment [1] was < 30 nM.

`CCn1nc(C)cc1C(=O)N=c1n(C)c2cc(C(N)=O)ccc2n1CCC(CCn1c(=NC(=O)c2cc(C)nn2CC)n(C)c2cc(C(N)=O)ccc21)OCC(=O)NCCOCCOCCOCC(=O)N[C@H](C(=O)N1C[C@H](O)C[C@H]1C(=O)NCc1ccc(-c2scnc2C)cc1)C(C)(C)C` (some centres unmarked) [Example 28]: in experiment [1], the IC50 was < 30 nM.

For `CCn1nc(C)cc1C(=O)N=c1n(C)c2cc(C(N)=O)ccc2n1CCC(CCn1c(=NC(=O)c2cc(C)nn2CC)n(C)c2cc(C(N)=O)ccc21)OCC(=O)NCCOCCOCCOCCOCCNc1cccc2c1C(=O)N(C1CCC(=O)NC1=O)C2=O` (centres unmarked) [Example 29, 1-{3-[(N-2-{2-[2-(2-{2-[2-(2,6-Dioxo-3-piperidyl)-1,3-dioxo-4-isoindolinylamino]ethoxy}ethoxy)ethoxy]ethoxy}ethylcarbamoyl)methoxy]-5-{5-carbamoyl-2-[(1-ethyl-3-methyl-5-pyrazolyl)carbonylimino]-3-methyl-2,3-dihydro-1H-1 ,3-benzimidazol-1-yl}pentyl}-2-[(1-ethyl-3-methyl-5-pyrazolyl)carbonylimino]-3-methyl-2,3-dihydro-1H-1,3-benzimidazole-5-carboxamide], the results for the IC50 in experiment [1] and in experiment [2] were < 30 nM and 1.8 nM, respectively.

Regarding `CCn1nc(C)cc1C(=O)N=c1n(C)c2cc(C(N)=O)ccc2n1CCC(CCn1c(=NC(=O)c2cc(C)nn2CC)n(C)c2cc(C(N)=O)ccc21)OCC(=O)N1CCc2cc(OC)ccc2C1` (centres unmarked) [Example A9, 1-(5-{5-Carbamoyl-2-[(1-ethyl-3-methyl-5-pyrazolyl)carbonylimino]-3-methyl-2,3-dihydro-1H-1,3-benzimidazol-1-yl}-3-[2-(6-methoxy-1,2,3,4-tetrahydro-2-isoquinolyl)-2-oxoethoxy]pentyl)-2-[(1-ethyl-3-methyl-5-pyrazolyl)carbonylimino]-3-methyl-2,3-dihydro-1H-1,3-benzimidazole-5-carboxamide], at STING [3], the LC3B lipidation result was “reduced LC3B lipidation”, the “P-STING intensity (activation of STING)” value is “reduced intensity of P-STING” and the P-TBK1 intensity result is recorded as “reduced P-TBK1 intensity”. Moreover, the IFN media concentration at STING [4] (5 µM) is recorded as ~ 100 U/mL. Further, at STING [4] (A9 5 µM), the CXCL10 media concentration is reported as ~ 30 U/mL.

Turning to `CCn1nc(C)cc1C(=O)N=c1n(C)c2cc(C(N)=O)ccc2n1CCC(CCn1c(=NC(=O)c2cc(C)nn2CC)n(C)c2cc(C(N)=O)ccc21)OCC(=O)NCCOCCOCCOCCOCC(=O)N[C@H](C(=O)N1C[C@H](O)C[C@H]1C(=O)NCc1ccc(-c2scnc2C)cc1)C(C)(C)C` (some centres unmarked) [Example 5], the IC50 in experiment [1] was < 30 nM; in experiment [2], 2.4 nM.
